Test [1] relates to human sense of taste. Briefly: Determination of sweetness recognition threshold concentration by trained taste tester. The test is classed as in vivo. The conditions noted are these: in water at room temperature; for minimal effective concentration: Homo sapiens, read-out: Sweetness recognition threshold Level. The procedure: The term “sweetness recognition threshold concentration,” as generally used herein, is the lowest known concentration of a sweet compound that is perceivable by the human sense of taste. The sweetness recognition threshold level is specific for a particular compound, and varies based on temperature, matrix, ingredients and/or flavor system. The sweetness recognition threshold concentrations measurements and 5% sucrose equivalence measurements described herein were determined in water at room temperature.
A sip (approximately 2-5 mL) of control sample, including but not limited to water, was tasted and swallowed by a trained taste tester. After allowing a 15-25 second interval to pass, a second sip of the control is tasted and swallowed. The taste properties of the control are determined and recorded by the trained taste tester. An unknown sample is then tasted and swallowed in the same manner, allowing a 15-25 second interval between the two sips. Preferably no more than ten additives are tested per day to avoid taste fatigue. Each sample was taken at least 1.5 hours following eating or drinking The sweetness recognition thresholds concentration of 21 steviol glycosides were determined in this manner, and are shown in Table 1.

For test [2], the system named is human sense of taste. Briefly: Sugar-like taste quality enhancement of Stevia sweeteners by steviol glycoside additives, taste test by trained individual.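 On Taste change of Stevia Sweetener JSS (380 ppm) with Steviol Glycoside Additive: code −B means less bitterness.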 The conditions noted are these: for Taste change of Stevia Sweetener REBA (303 ppm) with Steviol Glycoside Additive / Taste change of Stevia Sweetener JSS (380 ppm) with Steviol Glycoside Additive / Taste change of Stevia Sweetener REBD (303 ppm) with Steviol Glycoside Additive: additive at or below its sweetness recognition threshold concentration, 5% sucrose equivalence, water, room temperature; for Taste change of Stevia Sweetener REBA (303 ppm) with Steviol Glycoside Additive: 97% pure rebaudioside A 303 ppm; for Taste change of Stevia Sweetener REBD (303 ppm) with Steviol Glycoside Additive: rebaudioside D 303 ppm. The test is classed as in vivo. Here is the method: A steviol glycoside is added in an amount at or below sweetness recognition threshold concentration to a solution of water and a Stevia sweetener. The solution is maintained at room temperature. Each sample is taste tested by a trained individual, as described in Example 1, in duplicate. Preferably no more than ten steviol glycosides are tested per day to avoid taste fatigue. Each sample was taken at least 1.5 hours following eating or drinking
The Stevia sweeteners used in this study were 97% pure rebaudioside A, JSS, and rebaudioside D.
The steviol glycosides were used in at or below sweetness recognition threshold concentrations. […]

As to `C=C1C[C@@]23CC[C@H]4[C@@](C)(CCC[C@@]4(C)C(=O)O)[C@@H]2CC[C@]1(O[C@@H]1O[C@H](CO)[C@@H](O)[C@H](O)[C@H]1O[C@@H]1O[C@H](CO)[C@@H](O)[C@H](O)[C@H]1O)C3` [Steviolbioside, steviolbioside], in the test on human sense of taste [1], the “Sweetness recognition threshold Level” value worked out at 50 ppm. Also, in the test on human sense of taste [2], the “Taste change of Stevia Sweetener REBA (303 ppm) with Steviol Glycoside Additive” value (“Taste change of Stevia Sweetener REBA” below) is reported as “N (N: no difference in presence or absence of steviol glycoside additive;)”, the “Taste change of Stevia Sweetener JSS (380 ppm) with Steviol Glycoside Additive” value (from here on “Taste change of Stevia Sweetener JSS”) was “N (N: no difference in presence or absence of steviol glycoside additive;)” and the “Taste change of Stevia Sweetener REBD (303 ppm) with Steviol Glycoside Additive” value (from here on “Taste change of Stevia Sweetener REBD”) is on record as “N (N: no difference in presence or absence of steviol glycoside additive;)”.
In the case of `CC1=C[C@@]23CC[C@H]4[C@@](C)(CCC[C@@]4(C)C(=O)OC4OC(CO)C(O)C(O)C4O)[C@@H]2CC[C@]1(OC1OC(CO)C(O)C(OC2OC(CO)C(O)C(O)C2O)C1OC1OC(CO)C(O)C(O)C1O)C3` (stereo partly shown) [Compound 4], the minimal effective concentration with human sense of taste [1] stood at 25 µg/mL. For the same molecule, in the test with human sense of taste [2], the “Taste change of Stevia Sweetener REBA” value is recorded as “N (N: no difference in presence or absence of steviol glycoside additive;)”, the “Taste change of Stevia Sweetener JSS” value was “N (N: no difference in presence or absence of steviol glycoside additive;)” and the “Taste change of Stevia Sweetener REBD” value is on record as “N (N: no difference in presence or absence of steviol glycoside additive;)”.
On to `C[C@@]12CCC[C@@](C)(C(=O)OC3OC(CO)C(O)C(O)C3O)[C@H]1CC[C@@]13C[C@@](OC4OC(CO)C(O)C(OC5OC(CO)C(O)C(O)C5O)C4OC4OC(CO)C(O)C(O)C4O)(CC[C@H]12)[C@](C)(O)C3` (stereo partly shown) [Compound 3], for which, in the test with human sense of taste [1], the minimal effective concentration was 700 µg/mL. The “modulation of Stevia sweeteners” value with human sense of taste [2] (additive at 700 ppm, all Stevia sweeteners) is given as “positive modulation of all Stevia sweeteners”. The off-taste note entry in the test on human sense of taste [2] (additive at 700 ppm, with Stevia sweeteners) is “weak chemical-like note”. In the test on human sense of taste [2], the “Taste change of Stevia Sweetener REBA” value is given as “+, −B, −SL, OF”; the “Taste change of Stevia Sweetener JSS” value is “−B, OF”; the “Taste change of Stevia Sweetener REBD” value is “+, −SL, OF”. In addition, in the test on human sense of taste [2] (mostly in 5% SE rebaudioside A, compared with compound 1), the “sugar-like taste quality enhancement effect” value is “similar, but smaller positive sugar-like taste quality enhancement effect”.
Take rebaudioside C: the “Sweetness recognition threshold Level” value with human sense of taste [1] is listed as 100 ppm. Besides, in the test on human sense of taste [2], the “Taste change of Stevia Sweetener REBA” value is on record as “N (N: no difference in presence or absence of steviol glycoside additive;)”, the “Taste change of Stevia Sweetener JSS” value was “N (N: no difference in presence or absence of steviol glycoside additive;)” and the “Taste change of Stevia Sweetener REBD” value is listed as “N (N: no difference in presence or absence of steviol glycoside additive;)”.

The values are drawn from patent US20130064955A1, “NATURAL SWEETENED COMPOSITIONS AND METHODS FOR PREPARING THE SAME” (priority 2011, published 2013).
